In article PMC10480161, “Identification of potent and selective N-myristoyltransferase inhibitors of Plasmodium vivax liver stage hypnozoites and schizonts” (Nature Communications, 2023):
Several values for one entry are separate records, joined by “and”; a condition that tells them apart may be missing. Equal values may be shown once. Read-outs that look alike come from different tables or passages of the source.

Tests used:
HepG2 cells = experiment: HepG2 cytotoxicity assay (Live/Dead staining); conditions: for Percentage of live HepG2 cells compared with diluent controls: replicates
How it was run: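 HepG2 cells (5000/well) treated with compounds at 1 to 20 µM, re-dosed with fresh compound every 24 h. Viability scored at 72 h by calcein-AM/ethidium homodimer (1 µM each, 10 min, 37 °C) live/dead staining under fluorescence microscopy.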

P. vivax schizonts = experiment: P. vivax liver stage assay, schizonts; format: cell-based, Plasmodium vivax; conditions: for Number of liverstage Schizonts per well: 20 µM, 8 dpi; for IC50: primary human hepatocytes, treatment day 5 to 8 post-infection, isolates 2 and 3
How it was run: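 Primary human hepatocytes (single donor, 25,000/well) infected with 14,000 P. vivax sporozoites per well from patient isolates; compounds (up to 20 µM) given daily from day 5 to day 8 post-infection. Schizonts counted by PvUIS4/DAPI confocal imaging; DAPI nuclei count used as toxicity measure.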

P. vivax hypnozoites = experiment: P. vivax liver stage assay, hypnozoites; format: cell-based, Plasmodium vivax; conditions: for Hypnozoites per well: Isolate 2, replicate wells (Figure 6d); for Number of liverstage hypnozoites per well: 20 µM, 8 dpi; for IC50: primary human hepatocytes, treatment day 5 to 8 post-infection, isolate 2
Method: Finally, we evaluated the NMT-binding compounds against non-developing P. vivax hypnozoites. […] (Fig. 6A). […] We, therefore, evaluated the impact of all tested compounds on P. vivax hypnozoites using these two isolates.
Plasmodium vivax liver stage assays were performed as described previously. Cryopreserved primary human hepatocytes (Cat No. F00995-P) and hepatocyte culture medium (HCM) (InVitroGroTM CP Medium) were obtained from Bioreclamation IVT, Inc., (Baltimore, MD, USA). Briefly, we seeded 384-well plates with primary hepatocytes from a single donor lot at a density of 25,000 cells per well. We then infected the hepatocytes with 14,000 freshly hand-dissected sporozoites per well. Cells were exposed to the compounds at indicated concentrations from day 5 post-infection. We used Pi4K inhibitor MMV390048, at 20 µM, as a positive control to eliminate P. vivax liver schizonts. We then proceeded to feed cultures every day, replacing the compounds until day 8 post-infection. Cells were fixed with 4% PFA, permeabilized with 1% Triton X-100, blocked with 2% BSA, and stained with DAPI and PvUIS4 antibodies to detect schizonts and hypnozoites forms by confocal microscopy. For antibody dilutions, PvUIS4 (kind gift from Dr. Noah Sather, Seattle Children’s Research Institute) was diluted 1:250 and the secondary antibody was anti-mouse AlexaFluor-594 (Cat # A-11005; RRID: AB_2534073) diluted 1:1000. DAPI was diluted 1:2000. The images were processed, analyzed and outlier cells were removed using IMARIS (Bitplane Inc.) image analysis software.

PvNMT = PvNMT (Plasmodium vivax, UniProt A5K1A2); experiment: NMT activity assay (CPM detection of free CoA), PvNMT; conditions: for SI: enzyme selectivity, HsNMT IC50/PvNMT IC50
HsNMT1 = target: T1, HsNMT1 (Homo sapiens, UniProt P30419); experiment: NMT activity assay (CPM detection of free CoA), HsNMT
T1 sequence (P30419 1-496): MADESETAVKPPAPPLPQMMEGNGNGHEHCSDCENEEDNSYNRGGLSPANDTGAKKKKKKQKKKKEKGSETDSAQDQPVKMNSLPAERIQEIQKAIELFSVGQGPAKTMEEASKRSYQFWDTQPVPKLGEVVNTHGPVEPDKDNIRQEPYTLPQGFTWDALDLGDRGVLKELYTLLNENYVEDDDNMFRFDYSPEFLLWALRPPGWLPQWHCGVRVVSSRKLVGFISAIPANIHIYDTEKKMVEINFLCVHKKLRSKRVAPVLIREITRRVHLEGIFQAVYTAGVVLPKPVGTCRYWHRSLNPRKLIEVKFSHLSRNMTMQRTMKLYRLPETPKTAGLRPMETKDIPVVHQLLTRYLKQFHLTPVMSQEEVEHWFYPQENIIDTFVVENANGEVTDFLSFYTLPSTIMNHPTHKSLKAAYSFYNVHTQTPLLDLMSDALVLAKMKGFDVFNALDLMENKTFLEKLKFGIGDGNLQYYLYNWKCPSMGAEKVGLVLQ

[1] = isolate 1, technical replicates (Fig. 5b)
[2] = isolate 2, technical replicates (Fig. 5b)
[3] = isolate 3, technical replicates (Fig. 5b)
[4] = Plasmodium vivax, Hepatocyte, 120 h
[5] = isolate 1, technical replicates (Fig. 6C)
[6] = isolate 2, technical replicates (Fig. 6C)
[7] = isolate 3, technical replicates (Fig. 6C)
[8] = PvNMT IC50, mean of two or more determinations

PvNMT, sequence (A5K1A2 entry or part of it): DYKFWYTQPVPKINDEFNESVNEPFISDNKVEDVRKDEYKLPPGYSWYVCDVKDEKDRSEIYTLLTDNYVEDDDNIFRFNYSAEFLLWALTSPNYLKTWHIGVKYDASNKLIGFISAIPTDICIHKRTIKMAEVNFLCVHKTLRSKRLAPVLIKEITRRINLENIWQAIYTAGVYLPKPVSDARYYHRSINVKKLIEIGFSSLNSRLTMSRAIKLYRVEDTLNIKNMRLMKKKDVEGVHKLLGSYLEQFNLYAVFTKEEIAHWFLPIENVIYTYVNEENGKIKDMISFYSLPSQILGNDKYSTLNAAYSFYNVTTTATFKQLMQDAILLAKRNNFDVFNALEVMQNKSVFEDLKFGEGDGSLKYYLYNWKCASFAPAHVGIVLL

| SMILES | Percentage of live HepG2 cells compared with diluent controls (HepG2 cells; 1 μM) | Percentage of live HepG2 cells compared with diluent controls (HepG2 cells; 2.5 μM) | Percentage of live HepG2 cells compared with diluent controls (HepG2 cells; 5 μM) | Percentage of live HepG2 cells compared with diluent controls (HepG2 cells; 10 μM) | Percentage of live HepG2 cells compared with diluent controls (HepG2 cells; 20 μM) | Number of liverstage Schizonts per well (P. vivax schizonts; [1]) | Number of liverstage Schizonts per well (P. vivax schizonts; [2]) | Number of liverstage Schizonts per well (P. vivax schizonts; [3]) | Schizonts per well (P. vivax schizonts; Isolate 2, 1.25 uM) | Schizonts per well (P. vivax schizonts; Isolate 2, 2.5 uM) | Schizonts per well (P. vivax schizonts; Isolate 2, 5 uM) | Schizonts per well (P. vivax schizonts; Isolate 3, 1.25 uM) | Schizonts per well (P. vivax schizonts; Isolate 3, 2.5 uM) | Schizonts per well (P. vivax schizonts; Isolate 3, 5 uM) | Schizonts per well (P. vivax schizonts; Isolate 3, 10 uM) | schizonts (fold change to DMSO) mean diff (P. vivax schizonts; isolate 1, 20 µM) | schizonts (fold change to DMSO) mean diff (P. vivax schizonts; isolate 2, 20 µM) | schizonts (fold change to DMSO) mean diff (P. vivax schizonts; isolate 3, 20 µM) | Hypnozoites per well (P. vivax hypnozoites; 1.25 uM) | Hypnozoites per well (P. vivax hypnozoites; 2.5 uM) | also measured |
| --- | --- | --- | --- | --- | --- | --- | --- | --- | --- | --- | --- | --- | --- | --- | --- | --- | --- | --- | --- | --- | --- |
| c1cncc(CCOc2ccccc2-c2ccnc(N3CCNCC3)c2)c1 [Compound 12j] | 85.5703% and 82.8678% | 74.0847% and 82.3481% | 81.2567% and 75.202% | 74.4485% and 73.0193% | 72.4216% and 71.8759% | 0 per well (2×) and 1 per well | 2 per well and 0 per well and 1 per well | 4 per well and 3 per well | 15 per well and 18 per well and 14 per well | 13 per well and 11 per well | 11 per well and 12 per well and 13 per well | 11 per well and 19 per well | 12 per well and 16 per well | 8 per well and 11 per well | 6 per well and 9 per well | 0.983 | 0.9434 | 0.7614 | 9 and 6 and 12 | 13 and 12 and 8 | Schizonts per well (P. vivax schizonts; Isolate 3, 20 uM (Fig. 5c-d)): 4 per well and 3 per well; IC50 (P. vivax schizonts; [4]): 4900 to 6000 nM; Hypnozoites per well (P. vivax hypnozoites; 5 uM): 19 and 3 and 13; Hypnozoites per well (P. vivax hypnozoites; 10 uM): 13 and 10; Number of liverstage hypnozoites per well (P. vivax hypnozoites; [5]): 0 per well (2×) and 3 per well; Number of liverstage hypnozoites per well (P. vivax hypnozoites; [6]): 0 per well (2×) and 3 per well; Number of liverstage hypnozoites per well (P. vivax hypnozoites; [7]): 0 per well; Hypnozoites per well (P. vivax hypnozoites; 20 uM): 0 (2×) and 3; IC50 (P. vivax hypnozoites; [4]): 12000 nM; hypnozoites (fold change to DMSO) mean diff (P. vivax hypnozoites; isolate 1, 20 µM): 0.985; hypnozoites (fold change to DMSO) mean diff (P. vivax hypnozoites; isolate 2, 20 µM): 0.897; IC50 (PvNMT; [8]): 124 nM; SI (PvNMT): 220.6; IC50 (HsNMT1): 27400 nM |
| Fc1ccc(-c2ccnc(N3CCNCC3)c2)c(OCCc2cccnc2)c1 [Compound 12l] | 89.7539% and 87.5192% | 87.1294% and 87.1034% | 86.8955% and 86.7396% | 88.7665% and 86.09% | 76.2415% and 75.9816% | 0 per well (2×) and 1 per well | 4 per well and 7 per well and 1 per well | 2 per well and 7 per well | 11 per well and 13 per well and 18 per well | 11 per well and 12 per well | 6 per well and 8 per well and 9 per well | 12 per well and 19 per well | 8 per well and 16 per well | 7 per well and 13 per well | 5 per well and 9 per well | 0.983 | 0.7736 | 0.6932 | 5 and 8 and 2 | 6 and 4 and 1 | IC50 (P. vivax schizonts; [4]): 2900 to 4700 nM; Hypnozoites per well (P. vivax hypnozoites; 5 uM): 5 and 7 and 0; Hypnozoites per well (P. vivax hypnozoites; 10 uM): 1 and 14 and 0; Number of liverstage hypnozoites per well (P. vivax hypnozoites; [5]): 0 per well (2×) and 5 per well; Number of liverstage hypnozoites per well (P. vivax hypnozoites; [6]): 0 per well (2×) and 5 per well; Number of liverstage hypnozoites per well (P. vivax hypnozoites; [7]): 0 per well; Hypnozoites per well (P. vivax hypnozoites; 20 uM): 0 (2×) and 5; IC50 (P. vivax hypnozoites; [4]): 2100 nM; hypnozoites (fold change to DMSO) mean diff (P. vivax hypnozoites; isolate 1, 20 µM): 1.000; hypnozoites (fold change to DMSO) mean diff (P. vivax hypnozoites; isolate 2, 20 µM): 0.828; IC50 (PvNMT; [8]): 23.4 nM; SI (PvNMT): 73; IC50 (HsNMT1): 1710 nM |
| Cc1n[nH]c(C)c1CCOc1cc(F)ccc1-c1ccnc(N2CCNCC2)c1 [Compound 12q] | 99.2906% and 100.564% | 95.6786% and 92.2225% | 91.8587% and 84.219% | 83.4135% and 96.0684% | 80.0613% and 94.8991% | 0 per well (2×) and 1 per well | 3 per well and 4 per well and 1 per well | 3 per well and 7 per well | 11 per well and 15 per well and 12 per well | 7 per well and 9 per well and 13 per well | 9 per well and 11 per well and 12 per well | 12 per well and 13 per well | 6 per well and 11 per well | 7 per well and 6 per well | 5 per well and 8 per well | 0.983 | 0.8491 | 0.6591 | 11 and 8 and 10 | 8 and 5 and 7 | IC50 (HepG2 cells): > 20000 nM; Schizonts per well (P. vivax schizonts; Isolate 2, 10 uM): 7 per well and 5 per well and 6 per well; IC50 (P. vivax schizonts): 2200 to 3500 nM; Hypnozoites per well (P. vivax hypnozoites; 5 uM): 5 and 6 and 3; Hypnozoites per well (P. vivax hypnozoites; 10 uM): 5 and 0 and 3; Number of liverstage hypnozoites per well (P. vivax hypnozoites; [5]): 0 per well (2×) and 1 per well; Number of liverstage hypnozoites per well (P. vivax hypnozoites; [6]): 1 per well (2×) and 0 per well; Number of liverstage hypnozoites per well (P. vivax hypnozoites; [7]): 0 per well; Hypnozoites per well (P. vivax hypnozoites; 20 uM): 1 (2×) and 0; hypnozoites (fold change to DMSO) mean diff (P. vivax hypnozoites; isolate 1, 20 µM): 0.939; hypnozoites (fold change to DMSO) mean diff (P. vivax hypnozoites; isolate 2, 20 µM): 0.931; IC50 (P. vivax hypnozoites): 4400 nM; SI (PvNMT): 22; IC50 (PvNMT; read-out: PvNMT IC50, mean of two or more determinations): 73 nM; IC50 (HsNMT1; read-out: HsNMT IC50, mean of two or more determinations): 1630 nM |
